The record followed here is patent publication US20260207632A1, “C[…] THERAPY” (KINGDOM THERAPEUTICS LIMITED, priority 2022, published 2026).

The test system of one experiment is rat VPA model of autism. Kind of experiment: Irritability-like behaviour: bottle-brush test (P30) in VPA rat model. The class given is in vivo. More on the design: key to bottle brush irritability: +: improvement; Ø: no change. Here is the method: (§1) In the first study, a sub-chronic 8-day dosing schedule was employed with the test compound CBD administered alone (10, 30 and 60 mg/kg, p.o. VPA/CBD; dose volume 5 ml/kg). Control animals were administered sterile saline (0.9% w/v, i.p.) in utero and the vehicle control (ethanol: Kolliphor HS-15:0.9% saline (1:1:18, v/v/v) p.o. VEH/VEH). The test compound and vehicle control were administered to the animals once daily for 7 days prior to, and once again on each day of behavioural assessment, 60 minutes prior to test which consisted of a battery of behavioural paradigms: P30 social play and bottle brush test, P31-32 open field exploratory behaviour. A reference positive control, the atypical antipsychotic risperidone (0.125 mg/kg, i.p., once per day for 8 days prior to and for duration of behavioural testing), was included in study one for comparison. Subsequent to behavioural analysis the effect of CBD on gastrointestinal permeability was evaluated four hours following oral administration of fluorescein isothiocyanate-labelled dextran measured in plasma on postnatal day 33. On postnatal day 34, 60 minutes post a final treatment with the test agents, animals were humanely euthanised and samples collected to evaluate inflammatory biomarkers, gastrointestinal function and histology. 5 In the second study, the sub-optimal dose of CBD (30 mg/kg, p.o.) was evaluated in combination with administration of THC at increasing concentration (0.75, 1.5 and 3 mg/kg, p.o. VPA/CBD+THC). Comparison was made to CBD administered alone at the sub-optimal and effective doses (30 and 60 mg/kg, p.o.) and to vehicle controls as per study one. Behavioural and gastrointestinal readouts were examined as per study one with terminal samples collected on the final day of the experiment.
To test irritability-like behaviour we employed the bottle-brush test modified for rats (Riittinen et al. 1986). Irritability-like behaviour was examined by measuring aggressive and defensive responses during the bottle-brush test carried out in juvenile animals immediately after play behaviour evaluation at P30. Irritability-like behaviour testing was performed under dark conditions with a red light and infrared camera recording (Kononoff et al., 2018). Testing consisted of 10 trials per rat in plastic cages (377×325×170 mm) with fresh bedding. During each trial, the rat was placed at the back of the cage. A bottle-brush was rotated toward the animal's whiskers (from the front of the cage). The brush was rotated around the whiskers of the rat for approximately 1 second. The brush was then rotated back to the front of the cage where it hung vertically for approximately 2 seconds, during which behavioural responses were recorded. An intertrial interval of 10 seconds was used, with each new trial started with the animal returned to the back of the cage. All testing was conducted in the morning, starting at 09.00 and concluded before 12.00.
Employing video analysis of the test the following were scored as aggressive responses: smelling the brush, biting the brush (during the initial phase of rotating the brush forward and back to the starting position), boxing the target, following the brush, exploring the brush (using paws or mouth to manipulate the brush without biting or boxing), mounting the brush, and delayed biting (during the 2 s that the brush hung at the starting position). The following were scored as defensive responses: escaping from the brush, digging, burying, jumping, climbing, vocalization, freezing, and grooming. Grooming and digging were additionally recorded during the 10 second intertrial intervals. Frequency and total time engaged in each behaviour and the sum of aggressive and defensive behaviours, referred to as the irritability score (Kononoff et al, 2018), were recorded.

Experiment [1] relates to colonic myeloperoxidase (MPO) activity. Kind of experiment: Colon myeloperoxidase (MPO) activity (P34) in distal colon, VPA rat model. Also noted: key to MPO activity: +: improvement; Ø: no change. The class given is in vivo. Here is the method:
as §1
Five animals were chosen at random from each of the agreed treatment groups. Colon tissue was collected after euthanasia, weighted, flushed using cold sterile saline, and divided into three sections. One distal sample (approx. 1 cm×1 cm) was employed for intestinal myeloperoxidase (MPO) activity as described below by Berand Ltd. This sample was weighed and stored at −80° C. until use. A second proximal colon sample (approx. 1 cm×5 cm) was prepared for histological analysis by collection using the Swiss roll technique, placed into a cassette for paraffin embedding and preservation in 10% formalin solution for 24 hours. They were then transferred into 70% ethanol solution until paraffin embedded. These samples were shipped in 70% ethanol solution to Transpharmation Ltd at trinity College Dublin, Ireland for further processing. Haematoxylin & eosin staining was performed on the tissue before imaging. Five images were taken from each animal at 1.25× magnification. Using ImageJ the thickness of the muscle layer was measured at 5 locations throughout the section. A third medial section of colon (approx. 1 cm×2.5 cm) was frozen in liquid nitrogen for the analysis of cytokine expression and was shipped at minus 80° C. to Transpharmation Ltd at Trinity College Dublin, Ireland.
Analysis of colonic myeloperoxidase (MPO) activity employed a colorimetric activity assay kit (MAK068, Sigma-Aldrich, Ireland). Samples were analysed according to the manufacturer's instructions. Briefly, weighted distal colon tissues from all the groups were rapidly homogenized with 4 volumes of MPO Assay buffer and then centrifuged (13000 g×10 min, 4° C.) to obtain the supernatant. A 50 μl aliquot of each was added to a flat bottomed 96 well plate and brought to a final volume of 100 μl with MPO assay buffer. The MPO activity in milliunits/mL was determined using a 5,5′-dithiobis-(2-nitrobenzoic acid) (DTNB) probe to produce a TNB chromophore in a standard curve (0-50 nmol/mL). Standards and blank were prepared according to manufacturer's instruction. Absorbance was read at 412 nm at 60 minutes and expressed per mg of tissue sample. […]

Where [2] appears, read: cohort two, CBD 30 mg/kg, THC 0 mg/kg p.o.
[3] abbreviates: cohort two, CBD 60 mg/kg, THC 0 mg/kg p.o.
Where [4] appears, read: study one, CBD 10 mg/kg, vs VPA/VEH.
Setting [5] is: study one, CBD 60 mg/kg, vs VPA/VEH.
[6] abbreviates: cohort one, risperidone 0.125 mg/kg i.p.
Setting [7] is: study one, risperidone 0.125 mg/kg i.p.

The structures appear in SMILES notation.

For `C=C(C)[C@@H]1CCC(C)=C[C@H]1c1c(O)cc(CCCCC)cc1O` [CBD, cannabidiol], the bottle brush irritability entry was “Ø” with rat VPA model of autism (cohort one, CBD 10 mg/kg p.o.); “+” in the experiment with rat VPA model of autism (cohort one, CBD 30 mg/kg p.o.); “+” in the experiment on rat VPA model of autism (cohort one, CBD 60 mg/kg p.o.); “Ø” with rat VPA model of autism (setting [2]); “+” in the experiment on rat VPA model of autism (setting [3]). The “increase in aggressive responses, bottle brush” value with rat VPA model of autism (setting [4]) is listed as “significantly reduced”; in the experiment with rat VPA model of autism (setting [5]), “significantly reduced”; with rat VPA model of autism (study two, CBD 30 mg/kg), “without effect”; in the experiment on rat VPA model of autism (study two, CBD 60 mg/kg), “significantly reduced”. The “irritability score (combined aggressive and defensive behaviours)” value is listed as “significantly reduced” with rat VPA model of autism (setting [4]); “significantly reduced” in the experiment with rat VPA model of autism (study one, CBD 30 mg/kg, vs VPA/VEH); “significantly reduced” in the experiment on rat VPA model of autism (setting [5]); “without effect” in the experiment on rat VPA model of autism (study two, CBD 30 mg/kg); “significantly reduced” in the experiment on rat VPA model of autism (study two, CBD 60 mg/kg). For the same molecule, the MPO activity result is given as “Ø” in experiment [1] (cohort one, CBD 10 mg/kg p.o.); “Ø” in experiment [1] (cohort one, CBD 30 mg/kg p.o.); “+” in experiment [1] (cohort one, CBD 60 mg/kg p.o.); “Ø” in experiment [1] (setting [2]); “+” in experiment [1] (setting [3]). Further, the “increase in colonic MPO activity” value is “significantly prevented” in experiment [1] (setting [5]); “without significant effect” in experiment [1] (study two, CBD 30 mg/kg); “significantly prevented” in experiment [1] (study two, CBD 60 mg/kg).
`Cc1nc2n(c(=O)c1CCN1CCC(c3noc4cc(F)ccc34)CC1)CCCC2` [Risperidone, risperidone]: the bottle brush irritability result in the experiment on rat VPA model of autism (setting [6]) is listed as “+”. Besides, in the experiment with rat VPA model of autism (setting [7]), the “increase in aggressive responses, bottle brush” value is reported as “significantly reduced”; the “irritability score (combined aggressive and defensive behaviours)” value is “significantly reduced”. Also, the MPO activity entry in experiment [1] (setting [6]) was “Ø”. The “increase in colonic MPO activity” value in experiment [1] (setting [7]) is given as “without effect”.
